{"source": "patent US20210330611A1", "about": "“THERAPY FOR NEUROLOGICAL DISEASES/DISORDERS” (priority 2020, published 2021)", "key": {"[1]": {"system": "LPS-induced microglia activation", "assay": "Image-based assay of LPS-induced microglia activation (HTS and dose response)", "type": "cell-based, rat", "details": "for inhibition at 10 µM: read-out: LPS % inhibition"}, "[2]": {"system": "fibrin- and LPS-induced microglia activation", "assay": "cells", "type": "cell-based, rat"}, "[3]": {"system": "fibrin-induced microglia activation", "assay": "Image-based assay of fibrin-induced microglia activation (HTS and dose response)", "type": "cell-based, rat", "details": "for inhibition at 10 µM: read-out: Fibrin % inhibition"}, "primary rat microglia [4]": {"system": "primary rat microglia", "assay": "Cell toxicity (dead cells, size <150 μm2) in coated fibrin (cFib) assay;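 as to Fibrin % cell toxicity: share of dead cells sized under 150 µm2 at 10 µM in fibrin-stimulated microglia HTS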"}, "primary rat microglia [5]": {"system": "primary rat microglia", "assay": "Cell toxicity (dead cells, size <150 μm2) in LPS assay"}, "[6]": {"details": "Rattus norvegicus, Microglia, 48 h, primary microglia HTS, LPS stimulation, increased cell size (>800 μm^2) as marker of activation"}, "[7]": {"details": "quadrant by fibrin and LPS inhibition in HTS of 1907 compounds"}, "[8]": {"details": "Rattus norvegicus, Microglia, primary microglia HTS, fibrin stimulation, increased cell size (>800 μm^2) as marker of activation"}, "[9]": {"details": "primary microglia HTS, fibrin stimulation, decreased size (<150 μm^2) as marker of toxicity"}, "[10]": {"details": "primary microglia HTS, LPS stimulation, decreased size (<150 μm^2) as marker of toxicity"}, "[11]": {"details": "Rattus norvegicus, Microglia, primary HTS, 10 μM, LPS-stimulated primary microglia"}, "[12]": {"details": "primary HTS, 10 μM, LPS-stimulated primary microglia"}, "[13]": {"details": "primary HTS, 10 μM, fibrin assay, dead cells size <150 μm2"}, "[14]": {"details": "primary HTS, 10 μM, LPS assay, dead cells size <150 μm2"}, "[15]": {"details": "primary microglia HTS, LPS stimulation, increased cell size (>800 μm^2) as marker of activation"}, "[16]": {"details": "HTS of 1907 compounds, quadrant by fibrin and LPS inhibition"}, "[17]": {"details": "primary microglia HTS, 10 μM, fibrin assay, cell size <150 μm^2 as marker of toxicity"}, "[18]": {"details": "primary microglia HTS, 10 μM, LPS assay, cell size <150 μm^2 as marker of toxicity"}, "[19]": {"details": "primary microglia HTS, fibrin stimulation, toxicity = cell size <150 μm2"}, "[20]": {"details": "primary microglia HTS, LPS stimulation, toxicity = cell size <150 μm2"}}, "note": "Several values for one entry are separate records, joined by “and”; a condition that tells them apart may be missing. Identical values can stand only once. Like-named read-outs stand apart in the source and are kept apart here.", "data": [{"compound": "CC1(C)O[C@@H]2C[C@H]3[C@@H]4C[C@H](F)C5=CC(=O)CC[C@]5(C)[C@H]4[C@@H](O)C[C@]3(C)[C@]2(C(=O)CO)O1", "note": "[Flurandrenolide, reference compound]", "values": [{"measurement": "inhibition at 10 µM", "setting": "[1]; [6]", "result": 98, "unit": "%"}, {"measurement": "IC50", "setting": "[1]; Rattus norvegicus, Microglia, Table 7, read-out: LPS_IC50", "result": 0.002, "unit": "µM"}, {"measurement": "Quadrant (FIG. 5b)", "setting": "[2]; Table 2, screen at 10 μM", "result": "Q2"}, {"measurement": "Quadrant (FIG. 5b)", "setting": "[2]; [7]", "result": "Q2"}, {"measurement": "IC50", "setting": "[3]; Rattus norvegicus, Microglia, Table 7, read-out: fib_IC50", "result": 2, "unit": "nM"}, {"measurement": "inhibition at 10 µM", "setting": "[3]; [8]", "result": 110, "unit": "%"}, {"measurement": "Fibrin % cell toxicity", "setting": "primary rat microglia [4]; [9]", "result": "6% and 5%"}, {"measurement": "LPS % cell toxicity", "setting": "primary rat microglia [5]; [10]", "result": 5, "unit": "%"}]}, {"compound": "CC(C)(O/N=C(\\C(=O)N[C@@H]1C(=O)N2C(C(=O)[O-])=C(C[n+]3ccccc3)CS[C@H]12)c1csc(N)n1)C(=O)O", "note": "[Ceftazidime]", "values": [{"measurement": "inhibition at 10 µM", "setting": "[1]; [11]", "result": 17, "unit": "%"}, {"measurement": "LPS % inhibition", "setting": "[1]; [12]", "result": 30, "unit": "%"}, {"measurement": "Quadrant (FIG. 5b)", "setting": "[2]; primary HTS, 10 μM", "result": "Q4"}, {"measurement": "Fibrin % cell toxicity", "setting": "primary rat microglia [4]; [13]", "result": 1, "unit": "%"}, {"measurement": "LPS % cell toxicity", "setting": "primary rat microglia [5]; [14]", "result": 1, "unit": "%"}]}, {"compound": "COc1cc(/C=C/C(=O)N2CCCCCCC2)cc(OC)c1OC", "note": "[Cinoctramide]", "values": [{"measurement": "LPS % inhibition", "setting": "[1]; [15]", "result": 53, "unit": "%"}, {"measurement": "Quadrant (FIG. 5b)", "setting": "[2]; [7]", "result": "Q2"}, {"measurement": "Fibrin % inhibition", "setting": "[3]; primary microglia HTS, fibrin stimulation, increased cell size (>800 μm^2) as marker of activation", "result": 90, "unit": "%"}, {"measurement": "Fibrin % cell toxicity", "setting": "primary rat microglia [4]; [9]", "result": 4, "unit": "%"}, {"measurement": "LPS % cell toxicity", "setting": "primary rat microglia [5]; [10]", "result": 1, "unit": "%"}]}, {"compound": "CC(=O)/N=c1/sc(S(N)(=O)=O)nn1C", "note": "[Methazolamide]", "values": [{"measurement": "inhibition at 10 µM", "setting": "[1]; [6]", "result": 10, "unit": "%"}, {"measurement": "Quadrant (FIG. 5b)", "setting": "[2]; [7]", "result": "Q4"}, {"measurement": "Fibrin % cell toxicity", "setting": "primary rat microglia [4]; [9]", "result": 1, "unit": "%"}, {"measurement": "LPS % cell toxicity", "setting": "primary rat microglia [5]; [10]", "result": 0, "unit": "%"}]}, {"compound": "CCC(=O)O[C@]1(C(=O)SCF)[C@H](C)C[C@H]2[C@@H]3C[C@H](F)C4=CC(=O)C=C[C@]4(C)[C@@]3(F)[C@@H](O)C[C@@]21C", "note": "[Fluticasone Propionate]", "values": [{"measurement": "Quadrant (FIG. 5b)", "setting": "[2]; [7]", "result": "Q2"}, {"measurement": "inhibition at 10 µM", "setting": "[3]; [8]", "result": 108, "unit": "%"}, {"measurement": "Fibrin % cell toxicity", "setting": "primary rat microglia [4]; [9]", "result": "7% and 5%"}, {"measurement": "LPS % cell toxicity", "setting": "primary rat microglia [5]; [10]", "result": "3% and 4%"}]}, {"compound": "CCN1CCCC1CNC(=O)c1cc(S(N)(=O)=O)ccc1OC", "note": "(stereo not shown) [Sulpiride]", "values": [{"measurement": "inhibition at 10 µM", "setting": "[1]; Rattus norvegicus, Microglia, primary microglia HTS, 10 μM, LPS-stimulated, cell size >800 μm^2 as marker of activation", "result": 11, "unit": "%"}, {"measurement": "LPS % inhibition", "setting": "[1]; primary microglia HTS, 10 μM, LPS-stimulated, cell size >800 μm^2 as marker of activation", "result": 7, "unit": "%"}, {"measurement": "Quadrant (FIG. 5b)", "setting": "[2]; [16]", "result": "Q4"}, {"measurement": "Fibrin % cell toxicity", "setting": "primary rat microglia [4]; [17]", "result": 1, "unit": "%"}, {"measurement": "LPS % cell toxicity", "setting": "primary rat microglia [5]; [18]", "result": 0, "unit": "%"}]}, {"compound": "CN(C)CC/C=C1/c2ccccc2Sc2ccc(Cl)cc21", "note": "[Chlorprothixene]", "values": [{"measurement": "Quadrant (FIG. 5b)", "setting": "[2]; primary HTS, 10 μM", "result": "Q4"}, {"measurement": "Fibrin % cell toxicity", "setting": "primary rat microglia [4]; [13]", "result": 1, "unit": "%"}, {"measurement": "LPS % cell toxicity", "setting": "primary rat microglia [5]; [14]", "result": "1% and 0%"}]}, {"compound": "C[N+]1(C)[C@@H]2C[C@@H](OC(=O)[C@H](CO)c3ccccc3)C[C@H]1[C@@H]1O[C@@H]12", "note": "[Methscopolamine Bromide]", "values": [{"measurement": "Quadrant (FIG. 5b)", "setting": "[2]; [7]", "result": "Q4"}, {"measurement": "Fibrin % cell toxicity", "setting": "primary rat microglia [4]; [9]", "result": 1, "unit": "%"}, {"measurement": "LPS % cell toxicity", "setting": "primary rat microglia [5]; [10]", "result": 0, "unit": "%"}]}, {"compound": "Benzalkonium Chloride", "values": [{"measurement": "LPS % inhibition", "setting": "[1]; [15]", "result": 122, "unit": "%"}, {"measurement": "Quadrant (FIG. 5b)", "setting": "[2]; [7]", "result": "Q2"}, {"measurement": "Fibrin % cell toxicity", "setting": "primary rat microglia [4]; [9]", "result": 71, "unit": "%"}, {"measurement": "LPS % cell toxicity", "setting": "primary rat microglia [5]; [10]", "result": 31, "unit": "%"}]}, {"compound": "COc1cccc(C2(O)CCCCC2CN(C)C)c1", "note": "(stereo not shown) [Tramadol]", "values": [{"measurement": "Quadrant (FIG. 5b)", "setting": "[2]; [16]", "result": "Q4"}, {"measurement": "Fibrin % cell toxicity", "setting": "primary rat microglia [4]; [17]", "result": 1, "unit": "%"}, {"measurement": "LPS % cell toxicity", "setting": "primary rat microglia [5]; [18]", "result": 0, "unit": "%"}]}, {"compound": "CN(C)CCCC1(c2ccc(F)cc2)OCc2cc(C#N)ccc21", "note": "(stereo not shown) [Citalopram]", "values": [{"measurement": "inhibition at 10 µM", "setting": "[1]; [11]", "result": 10, "unit": "%"}, {"measurement": "LPS % inhibition", "setting": "[1]; [12]", "result": 8, "unit": "%"}, {"measurement": "Quadrant (FIG. 5b)", "setting": "[2]; primary HTS, 10 μM", "result": "Q4"}, {"measurement": "Fibrin % cell toxicity", "setting": "primary rat microglia [4]; [13]", "result": 0, "unit": "%"}, {"measurement": "LPS % cell toxicity", "setting": "primary rat microglia [5]; [14]", "result": 0, "unit": "%"}]}, {"compound": "N=C(N)NC(=O)Cc1c(Cl)cccc1Cl", "note": "[Guanfacine]", "values": [{"measurement": "Quadrant (FIG. 5b)", "setting": "[2]; [7]", "result": "Q4"}, {"measurement": "Fibrin % cell toxicity", "setting": "primary rat microglia [4]; [19]", "result": 1, "unit": "%"}, {"measurement": "LPS % cell toxicity", "setting": "primary rat microglia [5]; [20]", "result": 0, "unit": "%"}]}, {"compound": "Carboplatin", "values": [{"measurement": "LPS % inhibition", "setting": "[1]; [12]", "result": "4% and 7%"}, {"measurement": "Quadrant (FIG. 5b)", "setting": "[2]; primary HTS, 10 μM", "result": "Q4"}, {"measurement": "Fibrin % cell toxicity", "setting": "primary rat microglia [4]; [13]", "result": 1, "unit": "%"}, {"measurement": "LPS % cell toxicity", "setting": "primary rat microglia [5]; [14]", "result": 0, "unit": "%"}]}, {"compound": "OCCOCCN1CCN(C(c2ccccc2)c2ccc(Cl)cc2)CC1", "note": "(stereo not shown) [Hydroxyzine]", "values": [{"measurement": "Quadrant (FIG. 5b)", "setting": "[2]; [7]", "result": "Q4"}, {"measurement": "Fibrin % cell toxicity", "setting": "primary rat microglia [4]; [19]", "result": "0% and 1%"}, {"measurement": "LPS % cell toxicity", "setting": "primary rat microglia [5]; [20]", "result": 0, "unit": "%"}]}, {"compound": "C[C@@H]1[C@H](O)[C@@H](C)/C=C/C=C/CC/C=C/C=C/C=C/C=C/C(O[C@H]2O[C@H](C)[C@@H](O)[C@H](N)[C@@H]2O)CC2O[C@](O)(CC(O)C(O)CCC(O)CC(O)CC(O)CC(=O)O[C@H]1C)CC(O)C2C(=O)O", "note": "(stereo partly shown) [Nystatin]", "values": [{"measurement": "Quadrant (FIG. 5b)", "setting": "[2]; [7]", "result": "Q4"}, {"measurement": "Fibrin % cell toxicity", "setting": "primary rat microglia [4]; [9]", "result": "0% and 1%"}, {"measurement": "LPS % cell toxicity", "setting": "primary rat microglia [5]; [10]", "result": 1, "unit": "%"}]}, {"compound": "CCC(Cc1c(I)cc(I)c(N)c1I)C(=O)O", "note": "(stereo not shown) [lopanic Acid]", "values": [{"measurement": "IC50", "setting": "[1]; LPS-induced microglia activation, dose response, read-out: LPS IC50 (uM) (Suppl. Table 7)", "result": "> 20", "unit": "µM"}, {"measurement": "Quadrant (FIG. 5b)", "setting": "[2]; [16]", "result": "Q3"}, {"measurement": "Cherry-picked Hit (Suppl. Table 7)", "setting": "[2]; hit classification in microglia HTS", "result": "HIT (Hits were defined as molecules that exhibited greater than 50% inhibition of either fibrin or LPS activation)"}, {"measurement": "IC50", "setting": "primary rat microglia [4]; read-out: Cell Toxicity IC50 (uM) [cFib assay], cFib assay", "result": "> 20", "unit": "µM"}, {"measurement": "IC50", "setting": "primary rat microglia [5]; read-out: Cell Toxicity IC50 (uM) [LPS assay], LPS assay", "result": "> 20", "unit": "µM"}]}, {"compound": "CC(C)N1CCN(c2ccc(OCC3COC(Cn4cncn4)(c4ccc(Cl)cc4Cl)O3)cc2)CC1", "note": "(stereo not shown) [Terconazole]", "values": [{"measurement": "Quadrant (FIG. 5b)", "setting": "[2]; [16]", "result": "Q4"}, {"measurement": "Fibrin % cell toxicity", "setting": "primary rat microglia [4]; [17]", "result": 1, "unit": "%"}, {"measurement": "LPS % cell toxicity", "setting": "primary rat microglia [5]; [18]", "result": 0, "unit": "%"}]}]}
